One series deals with NLRX1 (Bos taurus, UniProt A7MB19). In words: Drug/protein binding partner, SPR: NLRX1. The arrangement: species or system bovine. The conditions noted are these: PBMCs. How it is done:
To further characterize the direct activity of the compounds of the invention, experiments to identify the drug's direct binding host partners(s) were performed with the aim of identifying the potential biological targets. Bovine primary cells (peripheral blood mononuclear cells [PBMCs] and polymorphonuclear cells [PMN/neutrophils]) and tissue (trachea, lung) protein homogenates were mixed with M9 and the macrolide, gamithromicin as a comparator. Tissue interactions were allowed to form using a heterogeneous assembly method (nematic protein organization technique, NPOT; Inoviem Scientific); and traditional western blots to identify native-structure proteins bound to the compound. Mass spectrometry analysis identified eight proteins involved in the interaction with M9 as compared to gamithromycin. The antibacterial macrolide gamithromycin was used as a comparator to differentiate specific binding to M9. These proteins were considered to be either direct binding partners of the drug or closely involved in the drug:target interaction (Table 6).
In order to add further clarity to binding partner identification, surface plasma resonance (SPR) technology was used. […]
KD is the equilibrium dissociation constant that was used to present the drug/target affinity. The identified targets associated with drug were measured by surface plasmon resonance (SPR) to define the KD.

The subject of series [1] is bovine respiratory disease (BRD). Put plainly: Natural bovine respiratory disease study. The format is in vivo, beef calves. The conditions noted are these: 14-day observation, dosed on arrival to feedlot.
Another series relates to P. multocida. Put plainly: Murine P. multocida intranasal challenge study, survival. It is filed as in vivo. The conditions noted are these: 32 mg/kg (T03) subcutaneous 18 hours after challenge, 5×10^3 CFU/mouse. As for the experimental part: In one murine P. multocida intranasal challenge study, mice were administered tulathromycin (16 mg/kg; T02), M9 (32 mg/kg; T03), or ceftiofur (9 mg/kg; T04) by subcutaneous injection 18 hours after bacterial challenge (5×10^3 CFU/mouse) for lung tissue RNA sequence analysis. Survival at Day 7 was about 80%, 50%, and 90% for T02, T03, and T04, respectively, compared to placebo at 0%. Differential gene expression from total lung tissue RNA sequence analysis indicated at least 226 unique genes were up or down regulated (with significance) for T03. Output from ingenuity pathway analysis of these unique genes predicted major upstream regulators of the involved pathways. Data was analyzed based on the number of genes being modulated in the same direction that were associated with a given upstream regulator. An activation z-score of 2 or greater is considered significant and the direction change is indicated by + (activated) or − (inhibited). The top 5 pathways included: IL-9 signaling, glucocorticoid receptor signaling, prolactin signaling, JAK STAT signaling, and IL-17 signaling. The top 6 upstream regulators (activation z-score) included: lipopolysaccharide (−6.725), TNF (−4.669), IFNγ (−5.759), IL-1ß (−5.947), STAT1 (−2.787), and poly rI:rC-RNA (−5.289). Even though this study was run in the murine model, the top upstream regulators identified as being modulated by M9 include an almost ubiquitous overlap with the pathways identified in the natural disease study as being key mediators in BRD, and therefore is modulating highly relevant pathways in BRD pathobiology.

In the next series the test system is H. somni. Put plainly: MIC, H. somni.
In series [2] the test system is bovine alveolar macrophages. In words: Phospholipidosis assay (HCS LipidTox). It is filed as cell-based. As to conditions: Bos taurus, Macrophage. The text has this:
The second immunomodulation in vitro assay evaluated the potential for phospholipidosis with the compounds of the invention in bovine alveolar macrophages. The phospholipidosis assay is being used as a convenient method for the evaluation of cellular uptake. This assay utilized Invitrogen's commercially available HCS LipidTox detection kit with an Incucyte real time fluorescence reader to observe variations in EC50 and phospholipidosis profiles based on compound concentrations (Table 2). […] Murine intraperitoneal macrophages were also used in the same assay to evaluate species variability for potential correlation with mouse efficacy results. The combination of the bovine whole blood assay and phospholipidosis assays enabled rank ordering for progression into in vivo testing in the murine challenge model.

Series [3] has as its system M. haemolytica (strain: OSU-012103-BHI). In words: Bovine M. haemolytica intratracheal lung challenge model.
Another series relates to S. aureus. In words: MIC, S. aureus. As to conditions: Staphylococcus aureus.
Another series deals with BRD. Put plainly: Separate study, M9 versus saline control: lung lesions and mortality. As to conditions: 10 mg/kg. It is filed as in vivo.

pEC50: −log10 of the molar value. ≈ marks a conversion by molar mass, not a printed value. Entries after “also recorded” stand apart in the source; their conditions may differ.

NLRX1, sequence (A7MB19 1-973): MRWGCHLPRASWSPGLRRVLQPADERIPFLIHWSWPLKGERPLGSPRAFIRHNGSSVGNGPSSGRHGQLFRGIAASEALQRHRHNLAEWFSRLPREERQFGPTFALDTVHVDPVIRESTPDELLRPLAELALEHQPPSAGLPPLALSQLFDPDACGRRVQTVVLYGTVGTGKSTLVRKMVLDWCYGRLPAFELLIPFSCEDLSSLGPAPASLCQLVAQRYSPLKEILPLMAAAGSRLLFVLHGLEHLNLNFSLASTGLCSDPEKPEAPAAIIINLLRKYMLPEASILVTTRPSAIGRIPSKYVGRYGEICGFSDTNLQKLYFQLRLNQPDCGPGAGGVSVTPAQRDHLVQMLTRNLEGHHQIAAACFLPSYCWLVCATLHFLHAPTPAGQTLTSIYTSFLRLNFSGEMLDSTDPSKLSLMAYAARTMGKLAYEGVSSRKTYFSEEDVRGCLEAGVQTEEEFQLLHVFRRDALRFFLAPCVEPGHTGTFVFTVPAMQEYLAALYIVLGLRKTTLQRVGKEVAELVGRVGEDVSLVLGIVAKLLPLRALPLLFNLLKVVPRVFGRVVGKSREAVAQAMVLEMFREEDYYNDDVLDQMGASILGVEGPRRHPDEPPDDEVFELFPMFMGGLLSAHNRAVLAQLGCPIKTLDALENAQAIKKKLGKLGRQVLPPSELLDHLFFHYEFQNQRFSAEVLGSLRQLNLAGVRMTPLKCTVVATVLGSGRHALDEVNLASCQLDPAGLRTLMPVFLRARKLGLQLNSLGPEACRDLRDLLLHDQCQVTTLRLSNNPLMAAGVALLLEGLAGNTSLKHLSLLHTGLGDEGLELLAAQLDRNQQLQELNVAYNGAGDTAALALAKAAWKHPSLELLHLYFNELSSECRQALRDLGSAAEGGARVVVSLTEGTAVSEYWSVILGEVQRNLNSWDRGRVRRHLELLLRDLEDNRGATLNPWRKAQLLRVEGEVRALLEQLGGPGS

Usually MIC50 stands for the lowest concentration that inhibits either 50% of growth or 50% of the strains tested, depending on the study. Read a high MIC50 as lower susceptibility. For orientation: MIC90 means the lowest concentration that inhibits either 90% of growth or 90% of the strains tested, depending on the study. A lower MIC90 goes with greater potency. The term pEC50 denotes −log10 of the EC50, conventionally taken in molar units. In general, MIC refers to the least concentration at which growth counts as inhibited. A higher MIC goes with weaker potency. Regarding `CCCNC[C@]1(O)[C@H](C)O[C@@H](O[C@H]2[C@H](C)[C@@H](O[C@@H]3O[C@H](C)C[C@H](NC)[C@H]3O)[C@](C)(O)C[C@@H](C)CN[C@H](C)[C@@H](O)[C@](C)(O)[C@@H](CC)OC(=O)[C@@H]2C)C[C@@]1(C)OC` [Example M9, (2R,3S,4R,5R,8R,10R,11R,12S,13S,14R)-2-ethyl-3,4,10-trihydroxy-13-(((2R,4R,5S,6S)-5-hydroxy-4-methoxy-4,6-dimethyl-5-((propylamino)methyl)-tetrahydro-2H-pyran-2-yl)oxy)-11-(((2S,3R,4S,6R)-3-hydroxy-6-methyl-4-(methylamino)tetrahydro-2H-pyran-2-yl)oxy)-3,5,8,10,12,14-hexamethyl-1-oxa-6-azacyclopentadecan-15-one], the “Interaction KD” value at NLRX1 was “Indirect”. Also, the figures for the Percent failure in series [1] (5 mg/kg (T02)) and in series [1] (10 mg/kg (T03)) were 19.3% and 8.8%, respectively. The “Survival at Day 7” value in the series with P. multocida is on record as about 50%. The compound also yielded an MIC50 against H. somni of 32 µg/mL (≈ 40.4 µM). Further, the MIC90 in the series with H. somni was 32 µg/mL (≈ 40.4 µM). In addition, in series [2], the pEC50 was 4.27. In addition, the Mortality is 1/6 in series [3] (T02: 10 mg/kg subcutaneous Day −1, M. haemolytica challenge Day 0); 0/6 in series [3] (T04: 10 mg/kg subcutaneous Day −1, no challenge); 13% in the series with BRD (versus saline control 38.9%, p=0.025). In series [3] (bovine M. haemolytica challenge), the IL-6 levels result is recorded as “significantly reduced”. For the same compound, in series [3] (cattle, monocytes/macrophages in whole blood), the CD163 expression entry was “suppressed; also recorded: mitigates the pathologic increase”. This compound showed an MIC in the series on S. aureus of 64 µg/mL (≈ 80.8 µM). In the series on BRD (versus saline control 31%, p=0.023), this compound yielded a lung lesions of 20%.

Source of the values: patent publication US12390440B2, “Immunomodulating trifluoromethyl-aminal azalides” (Zoetis Services LLC, priority 2020, dated 2025).
